Patent US20240116877A1, “KIT KINASE INHIBITORS AND METHODS OF USE THEREOF” (Deciphera Pharmaceuticals, LLC, priority 2021, published 2024)
Read-outs that look alike come from different tables or passages of the source.

What was measured:
c-KIT kinase (uKIT) = c-KIT kinase (uKIT) (Homo sapiens (Human), UniProt P10721); assay: Biochemical Assay for uKIT (coupled pyruvate kinase/lactate dehydrogenase assay); conditions: Inhibition of biochemical activity of uKIT kinase; 1 mM ATP
Outline: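 IC50 from percent inhibition of reaction rate over 2-3 h, relative to no-compound and known-inhibitor controls. KIT enzyme (16 nM or 4.36 nM, two sequences) ran with 1 mM ATP and 0.7 mg/mL PE4Y in Tris pH 7.5, 30° C; ATP turnover coupled to NADH loss at 340 nm.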

Ba/F3 KIT mutant cells = assay: Ba/F3 mutant KIT Cell Proliferation Assays (resazurin); format: cell-based; conditions: Mus musculus, BaF3
Outline: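 IC50 values come from resazurin fluorescence (ex 540, em 600) after 5 h dye exposure, added as a 440 μM solution. Cells were IL-3-independent Ba/F3 expressing mutant KIT from a lentiviral vector, puromycin-selected.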

GIST 430 cells = assay: GIST 430 Cell Proliferation Assay (resazurin); format: cell-based; conditions: Homo sapiens; GIST430 cell proliferation
Outline: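 Five thousand cells per well were exposed to serially diluted compound in complete growth medium for 115 h at 37 degrees Celsius, 5% CO2. Resazurin was then added for a further 5 h, fluorescence read at 540 nm excitation/600 nm emission, and IC50 values calculated.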

[1] = Ba/F3 KIT AYdup-D816G mutant cell proliferation, read-out: AYdup-D816G IC50
[2] = Ba/F3 KIT AYdup-V654A mutant cell proliferation, read-out: AYdup-V654A IC50
[3] = Ba/F3 KIT exon11del-V654A mutant cell proliferation, read-out: exon11del-V654A IC50
[4] = Ba/F3 KIT exon11del-Y823D mutant cell proliferation, read-out: exon11del-Y823D IC50
[5] = Ba/F3 KIT AYdup mutant cell proliferation, read-out: AYdup IC50

Chain of c-KIT kinase (uKIT) (P10721 other isoform, or with tags, fused parts or gaps): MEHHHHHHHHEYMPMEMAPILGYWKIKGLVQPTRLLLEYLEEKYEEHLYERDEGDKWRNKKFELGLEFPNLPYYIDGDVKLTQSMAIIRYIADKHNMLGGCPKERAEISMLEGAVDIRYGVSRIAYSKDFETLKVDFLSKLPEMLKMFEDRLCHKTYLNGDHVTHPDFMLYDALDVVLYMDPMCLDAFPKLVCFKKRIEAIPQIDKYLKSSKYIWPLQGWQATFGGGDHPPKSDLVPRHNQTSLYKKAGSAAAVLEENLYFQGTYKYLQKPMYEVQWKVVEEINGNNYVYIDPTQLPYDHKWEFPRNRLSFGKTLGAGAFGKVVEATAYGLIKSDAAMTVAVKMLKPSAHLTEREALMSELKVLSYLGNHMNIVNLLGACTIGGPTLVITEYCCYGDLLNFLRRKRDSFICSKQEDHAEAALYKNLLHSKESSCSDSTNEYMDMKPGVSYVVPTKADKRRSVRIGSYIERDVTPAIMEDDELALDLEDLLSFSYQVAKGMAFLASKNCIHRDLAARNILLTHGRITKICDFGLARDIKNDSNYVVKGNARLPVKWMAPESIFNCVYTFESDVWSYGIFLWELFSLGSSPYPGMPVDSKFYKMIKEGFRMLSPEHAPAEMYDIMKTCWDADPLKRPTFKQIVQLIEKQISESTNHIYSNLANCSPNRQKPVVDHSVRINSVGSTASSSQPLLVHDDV

IC50 (c-KIT kinase (uKIT)) [nM]	IC50 (Ba/F3 KIT mutant cells; [1]) [nM]	IC50 (Ba/F3 KIT mutant cells; [2]) [nM]	IC50 (Ba/F3 KIT mutant cells; [3]) [nM]	IC50 (Ba/F3 KIT mutant cells; [4]) [nM]	IC50 (Ba/F3 KIT mutant cells; [5]) [nM]	SMILES	IC50 (GIST 430 cells) [nM]
10 to 100	–	10 to 100	100 to 1000	100 to 1000	–	COCCOc1cc(F)c2c(Nc3ccc(NC(=O)CC(=O)N4CCCC(F)(F)C4)cc3)ncnc2c1 [Example 165]	10 to 100
≤ 10	–	≤ 10	≤ 10	10 to 100	–	COCCOc1cc(F)c2c(Nc3ccc(NC(=O)CC(=O)NC4CC5(CCC5)C4)cc3)ncnc2c1 [Example 135]	≤ 10
10 to 100	10 to 100	10 to 100	10 to 100	10 to 100	10 to 100	COCCOc1cc(F)c2c(Nc3ccc(NC(=O)CC(=O)NCC(C)(C)C)cc3)ncnc2c1 [Example 4, N1-(4-((5-fluoro-7-(2-methoxyethoxy)quinazolin-4-yl)amino)phenyl)-N3-neopentylmalonamide]	≤ 10
10 to 100	–	10 to 100	10 to 100	> 1000	–	COCCOc1cc(F)c2c(Nc3ccc(NC(=O)CC(=O)NCC(C)(C)OC)cc3)ncnc2c1 [Example 5, N^1-(4-((5-fluoro-7-(2-methoxyethoxy)quinazolin-4-yl)amino)phenyl)-N^3-(2-methoxy-2-methylpropyl)malonamide]	10 to 100
10 to 100	–	100 to 1000	100 to 1000	100 to 1000	–	COCCOc1cc(F)c2c(Nc3ccc(NC(=O)CC(=O)N4CC[C@H](C)C4)cc3)ncnc2c1 [Example 191]	100 to 1000
10 to 100	–	10 to 100	10 to 100	> 1000	–	COCCOc1cc(F)c2c(Nc3ccc(NC(=O)CC(=O)NCC(F)(F)F)cc3)ncnc2c1 [Example 127]	10 to 100
10 to 100	–	10 to 100	10 to 100	10 to 100	–	COCCOc1cc(F)c2c(Nc3ccc(NC(=O)CC(=O)N4CCCC(C)(C)C4)cc3)ncnc2c1 [Example 166]	10 to 100
10 to 100	–	10 to 100	10 to 100	100 to 1000	–	COCCOc1cc(F)c2c(Nc3ccc(NC(=O)CC(=O)NCC4CCCC4)cc3)ncnc2c1 [Example 79]	10 to 100

Further lines, the molecule ahead of its results:

SMILES	IC50 (c-KIT kinase (uKIT)) [nM]	IC50 (Ba/F3 KIT mutant cells; [1]) [nM]	IC50 (Ba/F3 KIT mutant cells; [2]) [nM]	IC50 (Ba/F3 KIT mutant cells; [3]) [nM]	IC50 (Ba/F3 KIT mutant cells; [4]) [nM]	IC50 (Ba/F3 KIT mutant cells; [5]) [nM]	IC50 (GIST 430 cells) [nM]
COCCOc1cc(F)c2c(Nc3ccc(NC(=O)N[C@H]4CC[C@H](C(F)(F)F)CC4)cc3)ncnc2c1 [Example 30]	≤ 10	≤ 10	10 to 100	10 to 100	10 to 100	–	≤ 10
COCCOc1cc(F)c2c(Nc3ccc(NC(=O)COCC4CCCO4)cc3)ncnc2c1 (centres unmarked) [Example 58]	10 to 100	–	100 to 1000	100 to 1000	> 1000	–	10 to 100
COCCOc1cc(F)c2c(Nc3ccc(NC(=O)NCCC(C)(C)F)cc3)ncnc2c1 [Example 2, 1-(3-fluoro-3-methylbutyl)-3-(4-((5-fluoro-7-(2-methoxyethoxy)quinazolin-4-yl)amino)phenyl)urea]	≤ 10	10 to 100	10 to 100	10 to 100	100 to 1000	≤ 10	10 to 100
COC(C)(C)CCNC(=O)Nc1ccc(Nc2ncnc3cc(OCCN4CCOCC4)cc(F)c23)cc1 [Example 37]	10 to 100	10 to 100	10 to 100	10 to 100	10 to 100	≤ 10	≤ 10
COCCOc1cc(F)c2c(Nc3ccc(NC(=O)CCCC(C)(C)C)cc3)ncnc2c1 [Example 16]	≤ 10	≤ 10	10 to 100	≤ 10	10 to 100	–	≤ 10
CC(C)(F)CCNC(=O)Nc1ccc(Nc2ncnc3cc(OC[C@@H]4CCOC4)cc(F)c23)cc1 [Example 149]	≤ 10	–	10 to 100	10 to 100	10 to 100	–	10 to 100
COCCOc1cc(F)c2c(Nc3ccc(NC(=O)NCCC(C)(C)C#N)cc3F)ncnc2c1 [Example 70]	> 1000	–	100 to 1000	100 to 1000	100 to 1000	–	> 1000
